Measured values as given in patent US20240148821A1, “PHARMACEUTICAL USE OF CYCLIC PEPTIDE COMPOUND” (CHUGAI SEIYAKU KABUSHIKI KAISHA, priority 2021, published 2024).
Numbered stars: 1 amine (or outer) side, 2 acyl side, 3 side chain; on linkers, the order of the positions; unused ones are H or OH. Bridge positions count the residues as written; N and C are the ends. Square brackets hold non-standard residues; d marks the D form. Peptide text beside a SMILES is read from it. * marks the point of attachment. hPhe(3-Cl-4-CF3) = N[C@@H](CCc1ccc(C(F)(F)F)c(Cl)c1)C(=O)O; hPhe(3-F,4-CF3) = N[C@@H](CCc1ccc(C(F)(F)F)c(F)c1)C(=O)O; NMePhe(2-CF3) = CN[C@@H](Cc1ccccc1C(F)(F)F)C(=O)O; NMeAla(4-thiazolyl) = CN[C@@H](Cc1cscn1)C(=O)O; NMePhe(4-Cl) = CN[C@@H](Cc1ccc(Cl)cc1)C(=O)O; NMePhe(4-Me) = CN[C@@H](Cc1ccc(C)cc1)C(=O)O; NMePhe(4-F) = CN[C@@H](Cc1ccc(F)cc1)C(=O)O; hPhe(4-Cl) = N[C@@H](CCc1ccc(Cl)cc1)C(=O)O; X72 = O=C([C@@H]1Cc2ccccc2N1[*:1])[*:2]; NMeGly(cPent) = CN[C@H](C(=O)O)C1CCCC1; Phe(3-I) = N[C@@H](Cc1cccc(I)c1)C(=O)O; NMeY = CN[C@@H](Cc1ccc(O)cc1)C(=O)O; NMeCha = CN[C@@H](CC1CCCCC1)C(=O)O; NMeGly(cPr) = CN[C@H](C(=O)O)C1CC1; NMehLeu = CN[C@@H](CCC(C)C)C(=O)O; NMeChg = CN[C@H](C(=O)O)C1CCCCC1; NMeI = CC[C@H](C)[C@H](NC)C(=O)O; NMeD = CN[C@@H](CC(=O)O)C(=O)O; NMeL = CN[C@@H](CC(C)C)C(=O)O; NMeV = CN[C@H](C(=O)O)C(C)C; d(β3hA) = C[C@@H](N)CC(=O)O; Azetidin(1-yl) = C1CN(*)C1; NMeS = CN[C@@H](CO)C(=O)O; Pip = O=C(O)[C@@H]1CCCCN1; NMeA = CN[C@@H](C)C(=O)O; Nle = CCCC[C@H](N)C(=O)O; Piperidide = C1CCN(*)CC1; Ac5c = NC1(C(=O)O)CCCC1; Aze = O=C(O)[C@@H]1CCN1; CF3 = FC(F)(F)*; Sar = CNCC(=O)O

system: Human pancreatic cancer cell line AsPC-1 (G12D mutation Kras); test: AsPC-1 cell growth inhibition (AsPC-1 CGI); assay type: cell-based; details: read-out: AsPC-1 cell growth inhibition, 50% growth inhibitory concentration (IC50 value); 96 hours, CellTiter-Glo, values classified in ranges
Protocol: Test compounds were serially dilated with dimethyl sulfoxide, and 200 nL was then dispensed to a U-bottom 96-well plate using Labcyte Echo. […] The cell suspension was dispensed to a. plate containing a test compound at 100 μL per well and incubated at 37° C. in a 5% carbon dioxide gas incubator. 96 hours later, 80 μL of CellTiter-Glo (Promega) was added to each well and fluorescence was measured.

| Structure (SMILES) | IC50 [nM] |
| --- | --- |
| CC[C@H](C)[C@@H]1NC(=O)[C@H](CCC(C)C)N(C)C(=O)C[C@@H](C(=O)N2CCC2)N(C)C(=O)[C@H](C2CCCC2)N(C)C(=O)C2(CCCC2)NC(=O)[C@@H]2CCCN2C(=O)[C@H](CCc2ccc(C(F)(F)F)c(Cl)c2)NC(=O)CN(C)C(=O)[C@H](CC2CCCCC2)N(C)C(=O)[C@@H]2CCN2C(=O)[C@H](C)N(C)C1=O [Compound 806] ([NMehLeu]I[NMeA][Aze][NMeCha][Sar][hPhe(3-Cl-4-CF3)]P[Ac5c][NMeGly(cPent)][NMeD]-{Azetidin(1-yl)}; lactam N-11) | ≤ 20 |
| CC[C@H](C)[C@@H]1NC(=O)[C@H](CC(C)C)N(C)C(=O)C[C@@H](C(=O)N2CCCCC2)N(C)C(=O)[C@H](C2CCCCC2)N(C)C(=O)C2(CCCC2)NC(=O)[C@@H]2Cc3ccccc3N2C(=O)[C@H](CCc2ccc(C(F)(F)F)c(Cl)c2)NC(=O)CN(C)C(=O)[C@H](CC2CCCCC2)N(C)C(=O)[C@@H]2CCN2C(=O)[C@H](C)N(C)C1=O [Compound 812] ([NMeL]I[NMeA][Aze][NMeCha][Sar][hPhe(3-Cl-4-CF3)][X72][Ac5c][NMeChg][NMeD]-Piperidide; lactam N-11) | > 500 |
| CCCC[C@@H]1NC(=O)[C@H](Cc2cccc(I)c2)NC(=O)CN(C)C(=O)[C@H](Cc2ccc(Cl)cc2)N(C)C(=O)CN(C)C(=O)CN(C)C(=O)[C@H]([C@@H](C)CC)NC(=O)[C@H](CC(C)C)N(C)C(=O)C[C@@H](C(=O)N2CCCCC2)N(C)C(=O)[C@H](CC(C)C)NC(=O)[C@H](Cc2ccccc2C(F)(F)F)N(C)C1=O [Compound 813] ([NMeL]I[Sar][Sar][NMePhe(4-Cl)][Sar][Phe(3-I)][Nle][NMePhe(2-CF3)]L[NMeD]-Piperidide; lactam N-11) | > 500 |
| CCCC[C@@H]1NC(=O)[C@H](Cc2cccc(I)c2)NC(=O)CN(C)C(=O)[C@H](Cc2ccc(Cl)cc2)N(C)C(=O)CN(C)C(=O)CN(C)C(=O)[C@H]([C@@H](C)CC)NC(=O)[C@H](CC(C)C)N(C)C(=O)C[C@@H](C(=O)N2CCCCC2)N(C)C(=O)[C@H](CC(C)C)NC(=O)[C@H](Cc2ccc(OC(F)(F)F)cc2)N(C)C1=O [Compound 819] ([NMeL]I[Sar][Sar][NMePhe(4-Cl)][Sar][Phe(3-I)][Nle][NMeY](CF3)L[NMeD]-Piperidide; lactam N-11) | > 500 |
| CC[C@H](C)[C@@H]1NC(=O)[C@H](C)N(C)C(=O)C[C@@H](C(=O)N2CCCCC2)N(C)C(=O)[C@H](C(C)C)N(C)C(=O)C2(CCCC2)NC(=O)[C@H](Cc2ccc(F)cc2)N(C)C(=O)[C@H](CCc2ccc(C(F)(F)F)c(Cl)c2)NC(=O)CN(C)C(=O)[C@H](CC2CCCCC2)N(C)C(=O)CN(C)C(=O)CN(C)C1=O [Compound 821] ([NMeA]I[Sar][Sar][NMeCha][Sar][hPhe(3-Cl-4-CF3)][NMePhe(4-F)][Ac5c][NMeV][NMeD]-Piperidide; lactam N-11) | > 500 |
| CC[C@H](C)[C@@H]1NC(=O)[C@@H]2CCCCN2C(=O)C[C@@H](C(=O)N2CCCCC2)N(C)C(=O)[C@H](C(C)C)N(C)C(=O)C2(CCCC2)NC(=O)[C@@H]2CCCN2C(=O)[C@H](CCc2ccc(Cl)cc2)NC(=O)CN(C)C(=O)[C@H](CC2CCCCC2)N(C)C(=O)CN(C)C(=O)CN(C)C1=O [Compound 841] ([Pip]I[Sar][Sar][NMeCha][Sar][hPhe(4-Cl)]P[Ac5c][NMeV][NMeD]-Piperidide; lactam N-11) | > 500 |
| CC[C@H](C)[C@@H]1NC(=O)[C@H](C2CC2)N(C)C(=O)C[C@@H](C)NC(=O)[C@H](C(C)C)N(C)C(=O)C2(CCCC2)NC(=O)[C@@H]2CCCN2C(=O)[C@H](CCc2ccc(C(F)(F)F)c(Cl)c2)NC(=O)CN(C)C(=O)[C@H](CC2CCCCC2)N(C)C(=O)CN(C)C(=O)CN(C)C1=O [Compound 844] (cyclo([Ac5c][NMeV][d(β3hA)][NMeGly(cPr)]I[Sar][Sar][NMeCha][Sar][hPhe(3-Cl-4-CF3)]P)) | > 500 |
| CC[C@H](C)[C@@H]1NC(=O)[C@H](CC(C)C)N(C)C(=O)C[C@@H](C(=O)N2CCCCC2)N(C)C(=O)[C@H](COC)N(C)C(=O)C2(CCCC2)NC(=O)[C@@H]2CCCN2C(=O)[C@H](CCc2ccc(C(F)(F)F)c(Cl)c2)NC(=O)CN(C)C(=O)[C@H](CC2CCCCC2)N(C)C(=O)CN(C)C(=O)CN(C)C1=O [Compound 850] ([NMeL]I[Sar][Sar][NMeCha][Sar][hPhe(3-Cl-4-CF3)]P[Ac5c][NMeS](Me)[NMeD]-Piperidide; lactam N-11) | > 500 |
| CC[C@H](C)[C@@H]1NC(=O)[C@H](C(C)C)N(C)C(=O)C[C@@H](C)NC(=O)[C@H](CC(C)C)N(C)C(=O)C2(CCCC2)NC(=O)[C@H](CC(C)C)N(C)C(=O)[C@H](CCc2ccc(C(F)(F)F)c(F)c2)NC(=O)CN(C)C(=O)[C@H](Cc2ccc(Cl)cc2)N(C)C(=O)CN(C)C(=O)CN(C)C1=O [Compound 851] (cyclo([Ac5c][NMeL][d(β3hA)][NMeV]I[Sar][Sar][NMePhe(4-Cl)][Sar][hPhe(3-F,4-CF3)][NMeL])) | > 500 |
| CC[C@H](C)[C@@H]1NC(=O)[C@H](CC(C)C)N(C)C(=O)C[C@@H](C(=O)N(C)C)N(C)C(=O)[C@H]([C@@H](C)CC)N(C)C(=O)[C@H](C)NC(=O)[C@H](Cc2cscn2)N(C)C(=O)[C@H](CCc2ccc(C(F)(F)F)c(Cl)c2)NC(=O)CN(C)C(=O)[C@H](Cc2ccc(C)cc2)N(C)C(=O)[C@@H]2CCN2C(=O)[C@H](C)N(C)C1=O [Compound 856] ([NMeL]I[NMeA][Aze][NMePhe(4-Me)][Sar][hPhe(3-Cl-4-CF3)][NMeAla(4-thiazolyl)]A[NMeI][NMeD]-NMe2; lactam N-11) | > 500 |
